Measured values published in article PMC12300325, “Antimicrobial and Anti-Inflammatory Activity of N-(2-Bromo-phenyl)-2-hydroxy-benzamide Derivatives and Their Inclusion Complexes” (Pharmaceutics, 2025).
Like-named read-outs stand apart in the source and are kept apart here.

Biological target: trypsin (Sus scrofa, UniProt P00761)
Experiment: casein digestion protease inhibition assay, absorbance at […] nm
Assay type: biochemical
[1] = read-out: IC50 (mg/mL) * (converted)

Chain of trypsin (P00761 9-231): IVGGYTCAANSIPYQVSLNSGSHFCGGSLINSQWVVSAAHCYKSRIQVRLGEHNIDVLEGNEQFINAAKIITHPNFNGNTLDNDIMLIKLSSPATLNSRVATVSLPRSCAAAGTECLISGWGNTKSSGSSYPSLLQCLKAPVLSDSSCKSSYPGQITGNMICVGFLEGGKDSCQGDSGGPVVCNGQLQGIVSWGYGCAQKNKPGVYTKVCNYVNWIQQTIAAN

NNC(=O)COc1ccccc1C(=O)Nc1ccccc1Br [HD, N-(2-bromo-phenyl)-2-hydrazinocarbonylmethoxy-benzamide]
IC50 [1]: 171 µM

CCOC(=O)COc1ccccc1C(=O)Nc1ccccc1Br [EE, [2-(2-bromophenylcarbamoyl)phenoxy]acetic acid ethyl ester]
IC50 [1]: 115 µM

CC(=O)Oc1ccccc1C(=O)O [acetylsalicylic acid, reference compound]
IC50: 2250 µM

O=C(COc1ccccc1C(=O)Nc1ccccc1Br)NN=Cc1cc(Br)ccc1O [HN, 2-(5-bromo-2-hydroxy-benzylidene-hydrazinocarbonylmethoxy)-N-(2-bromo-phenyl)-benzamide]
IC50 [1]: 102 µM
